One experiment has as its target PIM1 (Homo sapiens, UniProt P11309). Briefly: KinaseGlo Pim1 ATP depletion assay. Type of experiment: biochemical. In short, it runs like this:
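2.5 nM PIM1 preincubated 15 min with compound and 40 μM BAD peptide in 50 mM HEPES pH 7.5, 5 mM MgCl2, 1 mM DTT, 0.05% BSA, 2.5% DMSO. The reaction was started with 20 μM ATP (final) and run to about 50% ATP depletion. Remaining ATP read by KinaseGlo Plus luminescence to give IC50.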

For a further experiment, the target named is PIM2 (Homo sapiens, UniProt Q9P1W9). Briefly: KinaseGlo Pim2 ATP depletion assay. Format: biochemical. The method, boiled down: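 Luminescent ATP-depletion read-out of PIM2 phosphorylating BAD peptide (RSRHSSYPAGT-OH). Final conditions: 5 nM PIM2, 4 μM ATP, 10 μM peptide, 2.5% DMSO in 50 mM HEPES pH 7.5, 5 mM MgCl2, 1 mM DTT, 0.05% BSA. Enzyme–peptide preincubated 15 min with compound; reaction run to ~50% ATP depletion.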
Chain of PIM2 (Q9P1W9 whole entry): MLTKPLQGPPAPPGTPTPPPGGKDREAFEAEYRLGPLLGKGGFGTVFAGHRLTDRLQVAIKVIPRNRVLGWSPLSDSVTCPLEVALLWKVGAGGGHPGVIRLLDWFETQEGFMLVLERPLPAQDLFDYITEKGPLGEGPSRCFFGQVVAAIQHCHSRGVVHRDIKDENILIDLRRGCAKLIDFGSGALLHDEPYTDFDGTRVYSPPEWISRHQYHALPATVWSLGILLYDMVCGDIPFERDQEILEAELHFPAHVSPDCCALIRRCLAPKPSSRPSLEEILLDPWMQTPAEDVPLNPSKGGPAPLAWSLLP
On the technique in general: Kinase-Glo measures the ATP left after a reaction by luminescence.

Another experiment has as its target PIM3 (Homo sapiens, UniProt Q86V86). Briefly: KinaseGlo Pim3 ATP depletion assay. Format: biochemical. In short, it runs like this:
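Kinase was preincubated 15 min with BAD peptide in HEPES pH 7.5/MgCl2/DTT/BSA before ATP was added. Final concentrations were 40 μM ATP, 100 μM BAD peptide and 2.5% DMSO, with 5 nM enzyme. The reaction ran to ~50% ATP depletion and remaining ATP was read by KinaseGlo Plus luminescence.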

A further experiment deals with GSK3β (Homo sapiens, UniProt P49841). Put plainly: GSK3β ATP depletion assay. Format: biochemical. The note with it: read-out: GSK3b IC50. The method, boiled down: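 Human GSK3β (5 nM) preincubated 15 min with 10 μM biotinylated phospho-CREB peptide in pH 7.5 Tris buffer (15 mM MgCl2, 1 mM DTT, 0.1% BSA, 2.5% DMSO). Reaction started with 2 μM ATP and run to about 50% ATP depletion. Remaining ATP measured by KinaseGlo luminescence.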
Chain of GSK3β (P49841 whole entry, species assumed): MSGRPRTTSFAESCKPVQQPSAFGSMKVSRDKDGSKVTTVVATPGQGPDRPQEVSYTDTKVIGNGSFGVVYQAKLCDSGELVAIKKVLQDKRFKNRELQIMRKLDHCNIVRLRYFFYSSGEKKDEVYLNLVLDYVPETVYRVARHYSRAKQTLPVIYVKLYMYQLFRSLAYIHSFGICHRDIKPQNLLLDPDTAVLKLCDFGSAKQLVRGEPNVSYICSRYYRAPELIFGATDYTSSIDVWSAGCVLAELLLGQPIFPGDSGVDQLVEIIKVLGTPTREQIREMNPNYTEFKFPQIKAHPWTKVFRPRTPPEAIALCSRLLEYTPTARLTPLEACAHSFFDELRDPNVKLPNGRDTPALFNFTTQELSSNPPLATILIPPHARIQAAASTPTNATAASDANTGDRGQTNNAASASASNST

In experiment [1] the test system is KMS11 (human myeloma cell line). Briefly: Cell proliferation assay (CellTiter-Glo), KMS11. Format: cell-based. To be noted: KMS11-Luc cells. In short, it runs like this:
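KMS11 cells in IMDM with 10% FBS and sodium pyruvate, seeded at 2000 cells/well on assay day. Compound added at 2× to equal volume of cells, incubated 3 days at 37° C. Viability read by CellTiter-Glo luminescence; EC50 derived.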

What is called IC50 is the concentration at which inhibition is half-maximal. For orientation: EC50 means the midpoint of the concentration-response curve. Read a low EC50 as an effect from little substance.

SMILES strings stand for the structures.

Chain of PIM1 (P11309 whole entry): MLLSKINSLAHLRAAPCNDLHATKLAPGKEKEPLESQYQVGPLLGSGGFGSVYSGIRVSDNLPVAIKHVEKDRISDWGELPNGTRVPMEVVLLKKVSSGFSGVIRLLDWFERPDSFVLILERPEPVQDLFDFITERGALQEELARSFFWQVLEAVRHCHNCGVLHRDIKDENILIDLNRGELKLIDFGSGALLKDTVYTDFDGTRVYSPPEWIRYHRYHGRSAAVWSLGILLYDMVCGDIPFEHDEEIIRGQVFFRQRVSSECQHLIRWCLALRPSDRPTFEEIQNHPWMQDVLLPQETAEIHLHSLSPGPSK

In the case of `N#CC[C@H]1O[C@@H](c2ccncc2NC(=O)c2nc(-c3c(F)cccc3F)ncc2N)C[C@@H](O)[C@@H]1O` [Example 153, 5-amino-N-(4-((2R,4R,5S,6R)-6-(cyanomethyl)-4,5-dihydroxytetrahydro-2H-pyran-2-yl)pyridin-3-yl)-2-(2,6-difluorophenyl)pyrimidine-4-carboxamide], the concentration for half-maximal inhibition (IC50) on PIM1 worked out at 23.6 nM; at PIM2, 26.7 nM; against PIM3 it was 13.5 nM; at GSK3β, 235 nM. In experiment [1], the EC50 was above 10000 nM.

As for `CC[C@]1(O)[C@H](O)C[C@H](c2ccncc2NC(=O)c2nc(-c3ncccc3F)ccc2N)O[C@@H]1C` [Example 155, 5-amino-N-(4-((2R,4R,5S,6R)-5-ethyl-4,5-dihydroxy-6-methyltetrahydro-2H-pyran-2-yl)pyridin-3-yl)-3′-fluoro-2,2′-bipyridine-6-carboxamide], the half-maximal inhibitory concentration (IC50) turned out to be 4 nM on PIM1, 46.3 nM on PIM2, 5.3 nM at PIM3 and 374 nM on GSK3β. Also, in experiment [1] (Homo sapiens, KMS-11), the EC50 was 4920 nM.

For the compound `CC[C@]1(O)[C@H](O)C[C@H](c2ccncc2NC(=O)c2nc(-c3cnn(C)c3C)ccc2N)O[C@@H]1C` [Example 156, 3-amino-6-(1,5-dimethyl-1H-pyrazol-4-yl)-N-(4-((2R,4R,5S,6R)-5-ethyl-4,5-dihydroxy-6-methyltetrahydro-2H-pyran-2-yl)pyridin-3-yl)picolinamide], the IC50 is 25.4 nM on PIM1, 532 nM at PIM2, 42.4 nM against PIM3 and 21.9 nM on GSK3β. For the same compound, the EC50 in experiment [1] (Homo sapiens, KMS-11) was above 10000 nM.

For the compound `CC[C@]1(O)[C@H](O)C[C@H](c2ccncc2NC(=O)c2nc(-c3ccncc3F)ccc2N)O[C@@H]1C` [Example 157, 5-amino-N-(4-((2R,4R,5S,6R)-5-ethyl-4,5-dihydroxy-6-methyltetrahydro-2H-pyran-2-yl)pyridin-3-yl)-3′-fluoro-2,4′-bipyridine-6-carboxamide], the IC50 against PIM1 amounted to 8 nM; on PIM2, 34.6 nM; against PIM3, 8.1 nM; at GSK3β it was 7.9 nM. This compound returned an EC50 in experiment [1] (Homo sapiens, KMS-11) of 9630 nM.

Consider `CC[C@]1(O)[C@H](O)C[C@H](c2ccncc2NC(=O)c2ncccc2N)O[C@@H]1C` [Example 158, 3-amino-N-(4-((2R,4R,5S,6R)-5-ethyl-4,5-dihydroxy-6-methyltetrahydro-2H-pyran-2-yl)pyridin-3-yl)picolinamide], for which the half-maximal inhibitory concentration (IC50) against PIM1 is 8.8 nM; against PIM2, 68.1 nM; against PIM3, 6.9 nM; at GSK3β, 23.1 nM. In experiment [1] (Homo sapiens, KMS-11), this compound showed a half-maximal effective concentration (EC50) above 10000 nM.

For the compound `CC[C@]1(O)[C@H](O)C[C@H](c2ccncc2NC(=O)c2nc(-c3ccnnc3)ccc2N)O[C@@H]1C` [Example 160, 3-amino-N-(4-((2R,4R,5S,6R)-5-ethyl-4,5-dihydroxy-6-methyltetrahydro-2H-pyran-2-yl)pyridin-3-yl)-6-(pyridazin-4-yl)picolinamide], the IC50 amounted to 166 nM at PIM1, 1640 nM against PIM2, 260 nM against PIM3 and 67.4 nM at GSK3β. In experiment [1] (Homo sapiens, KMS-11), this compound registered a concentration for a half-maximal effect (EC50) above 10000 nM.

As for `C=C[C@H]1O[C@@H](c2ccncc2NC(=O)c2nc(-c3c(F)cccc3F)ncc2N)C[C@@H](O)[C@@H]1O` [Example 161, 5-amino-2-(2,6-difluorophenyl)-N-(4-((2R,4R,5S,6R)-4,5-dihydroxy-6-vinyltetrahydro-2H-pyran-2-yl)pyridin-3-yl)pyrimidine-4-carboxamide], the IC50 came out at 32.8 nM on PIM1, 22.3 nM against PIM2, 15.8 nM at PIM3 and 1430 nM on GSK3β. Moreover, the concentration for a half-maximal effect (EC50) in experiment [1] (Homo sapiens, KMS-11) is above 10000 nM.

Take `CC[C@H]1O[C@@H](c2ncncc2NC(=O)c2ccc(F)c(-c3c(F)cccc3F)n2)C[C@@H](O)[C@@H]1O` [Example 162, 6-(2,6-difluorophenyl)-N-(4-((2R,4R,5S,6R)-6-ethyl-4,5-dihydroxytetrahydro-2H-pyran-2-yl)pyrimidin-5-yl)-5-fluoropicolinamide]: the half-inhibitory concentration (IC50) against PIM1 was 216 nM; at PIM2, 818 nM; at PIM3 it was 178 nM; on GSK3β, 13500 nM. Moreover, in experiment [1] (Homo sapiens, KMS-11), the concentration for a half-maximal effect (EC50) is above 10000 nM.

Turning to `CC[C@H]1O[C@@H](c2ccncc2NC(=O)c2ccc(F)c(-c3c(F)cccc3F)n2)C[C@@H](O)[C@]1(C)O` [Example 164, 6-(2,6-difluorophenyl)-N-(4-((2R,4R,5S,6R)-6-ethyl-4,5-dihydroxy-5-methyltetrahydro-2H-pyran-2-yl)pyridin-3-yl)-5-fluoropicolinamide], the 50% inhibitory concentration (IC50) is 0.8 nM at PIM1, 1.9 nM against PIM2, 1.6 nM at PIM3 and 2070 nM on GSK3β. Besides, the midpoint of the response in experiment [1] (Homo sapiens, KMS-11), the EC50, lay at 2760 nM.

On to `CC[C@@H]1O[C@H](c2ccncc2NC(=O)c2nc(-c3c(F)cccc3F)c(F)cc2N)C[C@H](O)[C@@]1(C)O` [Example 165, 3-amino-6-(2,6-difluorophenyl)-N-(4-((2S,4S,5R,6S)-6-ethyl-4,5-dihydroxy-5-methyltetrahydro-2H-pyran-2-yl)pyridin-3-yl)-5-fluoropicolinamide], for which the 50% inhibitory concentration (IC50) was found to be 9 nM at PIM1, 67.7 nM on PIM2, 35.9 nM on PIM3 and 2680 nM at GSK3β. The compound further yielded a 50% effective concentration (EC50) in experiment [1] (Homo sapiens, KMS-11) above 10000 nM.

As to `CC[C@H]1O[C@@H](c2ccncc2NC(=O)c2nc(-c3c(F)cccc3F)c(F)cc2N)C[C@@H](O)[C@]1(C)O` [Example 166, 3-amino-6-(2,6-difluorophenyl)-N-(4-((2R,4R,5S,6R)-6-ethyl-4,5-dihydroxy-5-methyltetrahydro-2H-pyran-2-yl)pyridin-3-yl)-5-fluoropicolinamide], the IC50 at PIM1 is 0.6 nM; against PIM2, 1.2 nM; against PIM3, 1.5 nM; at GSK3β, 1680 nM. Moreover, in experiment [1] (Homo sapiens, KMS-11), a half-maximal response (EC50) required 1330 nM.

In the case of `CC[C@@H]1O[C@H](c2ccncc2NC(=O)c2nc(-c3c(F)cccc3F)ncc2N)C[C@H](O)[C@@]1(C)O` [Example 167, 5-amino-2-(2,6-difluorophenyl)-N-(4-((2S,4S,5R,6S)-6-ethyl-4,5-dihydroxy-5-methyltetrahydro-2H-pyran-2-yl)pyridin-3-yl)pyrimidine-4-carboxamide], the IC50 turned out to be 65.5 nM at PIM1, 92 nM on PIM2, 86.7 nM at PIM3 and 3410 nM at GSK3β. Further, the half-maximal effective concentration (EC50) in experiment [1] (Homo sapiens, KMS-11) is above 10000 nM.

In the case of `CC[C@H]1O[C@@H](c2ccncc2NC(=O)c2nc(-c3c(F)cccc3F)ncc2N)C[C@@H](O)[C@]1(C)O` [Example 168, 5-amino-2-(2,6-difluorophenyl)-N-(4-((2R,4R,5S,6R)-6-ethyl-4,5-dihydroxy-5-methyltetrahydro-2H-pyran-2-yl)pyridin-3-yl)pyrimidine-4-carboxamide], the half-maximal inhibitory concentration (IC50) stood at 3 nM against PIM1, 2.3 nM at PIM2, 2.7 nM at PIM3 and 1030 nM on GSK3β. The EC50 in experiment [1] (Homo sapiens, KMS-11) was determined as 5900 nM.

In the case of `CCC[C@H]1O[C@@H](c2ccncc2NC(=O)c2nc(-c3c(F)cccc3F)ncc2N)C[C@@H](O)[C@@H]1O` [Example 169, 5-amino-2-(2,6-difluorophenyl)-N-(4-((2R,4R,5S,6R)-4,5-dihydroxy-6-propyltetrahydro-2H-pyran-2-yl)pyridin-3-yl)pyrimidine-4-carboxamide], the IC50 worked out at 14.4 nM on PIM1, 9.3 nM on PIM2, 13.2 nM against PIM3 and 1660 nM on GSK3β. Also, the EC50 in experiment [1] (Homo sapiens, KMS-11) was above 10000 nM.

Consider `O=C(Nc1cnccc1[C@H]1C[C@@H](O)[C@@]2(O)CCCC[C@H]2O1)c1ccc(F)c(-c2c(F)cccc2F)n1` [Example 174, 6-(2,6-difluorophenyl)-N-(4-((2R,4R,4aS,8aR)-4,4a-dihydroxyoctahydro-2H-chromen-2-yl)pyridin-3-yl)-5-fluoropicolinamide], for which the IC50 at PIM1 came to 0.5 nM; against PIM2 it was 1.3 nM; at PIM3 it was 1.6 nM; on GSK3β, 19.8 nM. In addition, in experiment [1] (Homo sapiens, KMS-11), the EC50 is 2630 nM.

With `Nc1cnc(-c2c(F)cccc2F)nc1C(=O)Nc1cnccc1[C@@H]1C[C@H](O)[C@]2(O)CCCC[C@@H]2O1` [Example 175, 5-amino-2-(2,6-difluorophenyl)-N-(4-((2S,4S,4aR,8aS)-4,4a-dihydroxyoctahydro-2H-chromen-2-yl)pyridin-3-yl)pyrimidine-4-carboxamide], the half-inhibitory concentration (IC50) came out at 35.7 nM on PIM1, 58.7 nM on PIM2, 57.4 nM on PIM3 and 598 nM on GSK3β. The compound further displayed a concentration giving a half-maximal response (EC50) in experiment [1] (Homo sapiens, KMS-11) above 10000 nM.

These data come from patent publication US20130109682A1, “CYCLIC ETHER COMPOUNDS USEFUL AS KINASE INHIBITORS” (NOVARTIS AG, priority 2010, published 2013).
